Test results from patent US11969402B2, “Compositions and methods for skin rejuvenation” (THE JOHNS HOPKINS UNIVERSITY, priority 2019, dated 2024).

Experiments:
[1] = tested on: normal human keratinocytes; assay: Transcriptome and proteome comparison of keratinocytes treated with Poly (I:C) or RA; assay type: cell-based; conditions: for identical gene transcripts inhibited by Poly (I:C) and RA: overlap of top ranked 100 downregulated transcripts; for identical gene transcripts induced by Poly (I:C) and RA: overlap of top ranked 100 upregulated transcripts; for overlap of inhibited proteins between Poly (I:C) and RA: top ranked 100 downregulated proteins; for overlap of induced proteins between Poly (I:C) and RA: top ranked 100 upregulated proteins
Excerpt: (§1) Microarray analysis. RNA isolated from keratinocytes with or without Poly (I:C) (GSE92646) and mouse wound tissues from wild type (C57BL/6NJ) and Tlr3^−/− with BMS493 and RA were submitted to the JHMI Deep Sequencing & Microarray core for Affymetrix® Human Exon 1.0ST and mouse microarray chip according to manufacturer's protocols. Raw gene expression signals in the form of Affymetrix CEL files were extracted and normalized with Partek® Genomics Suite™ software using the Robust Multichip Analysis (RMA) algorithm. Genes were ranked according to fold change of the intervention, and referred to as top or bottom induced if they are at the highest fold change (top) or lowest fold change (bottom). The significance of gene expression was measured by student's t-test analysis. These datasets generated during the current study are available in the NCBI GEO repository as listed above.
Proteomic analysis. For in vivo samples, wild-type and Tlr3^−/− unwounded and wounded skin where wound regions (center and edge area) were prepared for analysis. For in vitro samples, human primary scalp keratinocytes treated with 0.1 μM retinoic acid (RA) or 0.5 μg per ml Poly (I:C) and control were used. In vivo and in vitro samples were lysed in 5% sodium deoxycholate after washing in phosphate-buffered saline. Lysates were washed, reduced, alkylated and trypsinolyzed on filter as described by Wisniewski et al.^35 and Erde et al.^36. Tryptic peptides were separated on a nanoACQUITY UPLC analytical column (BEH130 C18, 1.7 μm, 75 μm×200 mm, Waters) over a 165 min linear acetonitrile gradient (3-40%) with 0.1% formic acid on a Waters nano-ACQUITY UPLC system, and analyzed on a coupled Thermo Scientific Orbitrap Fusion Tribrid mass spectrometer as described by Williamson et al.^37. Full scans were acquired at a resolution of 120,000, and precursors were selected for fragmentation by higher-energy collisional dissociation (normalized collision energy at 30%) for a maximum 3-second cycle. Tandem mass spectra were searched against a UniProt human reference proteome using MS Amanda algorithm described by Dorfer et al.^38 with a maximum precursor mass error tolerance of 10 ppm. Carbamidomethylation of cysteine and deamidation of asparagine and glutamine were treated as static and dynamic modifications, respectively. Resulting hits were validated at a maximum false discovery rate of 0.01 using a semi-supervised machine learning algorithm Percolator developed by Käll et al.^39. Protein abundance ratios were measured by comparing the MS1 peak volumes of peptide ions, whose identities were confirmed by MS2 sequencing as described above. The Label-free quantifications were performed using an aligned AMRT (Accurate Mass and Retention Time) cluster quantification algorithm Minora (Thermo Fisher Scientific, 2017). Pathway and gene ontology analysis were performed with Qiagen Ingenuity, Panther GO and DAVID databases, as described by Kramer et al.^40, Mi et al.^41, and Huang et al.^42, respectively.

[2] = tested on: human scalp keratinocytes; assay: Retinoid levels (RA by LC-MS/MS, ROL and RE by HPLC-UV) in keratinocytes; assay type: cell-based
Excerpt: Small interference RNA (siRNA) transfection. Human ALDH1A2 (Santa Cruz Biotechnology, sc41443), ALDH1A3 (Santa Cruz Biotechnology, sc43611), TLR3 (Dharmacon, M-007745-00), TRIF (Santa Cruz Biotechnology, sc106845), IRF3 (Santa Cruz Biotechnology, sc35710), NF-κB (Santa Cruz Biotechnology, sc29410) and non-targeting control (scramble) siRNAs (Santa Cruz Biotechnology, sc37007 & Dharmacon, D-001210) were commercially provided. Human scalp keratinocytes (3×10^5 cells per well) in 12-well plates were transfected with 20 nM of siRNAs using Lipofectamine® RNAiMAX (Thermo Fisher Scientific, #13778150) following the manufacturer's directions. Poly (I:C) (0.1 μg per ml) was applied to transfected cells and incubated for 48 hrs. At the end of transfection period, cells were harvested to isolate protein to perform qRT-PCR, western blot, and RA mass spectrometry.
IL6 treatment. Recombinant human interleukin 6 (rhIL6) (R&D system; 206-IL-010) was treated into human scalp keratinocytes with dose-dependent manners (0, 10, 50, and 100 ng per ml) for 2 days. Cells were harvested and lysates were used for RA measurement.
Determination of Retinoid Levels. For in vitro samples, human scalp keratinocytes were incubated with 0.5 μg per ml of Poly (I:C) for 48 hrs or siRNAs-transfected cells were incubated with 0.1 μg per ml of Poly (I:C) for 48 hrs. For in vivo samples, skin was analyzed from wild-type and Tlr3^−/− unwounded and wounded skin where wound regions (center and edge area) were cut by scalpel. Human skin was analyzed for retinoids with and without CO2 laser treatment as described. All samples were frozen at collection and stored at −80° C. until extraction. For in vitro experiments, media and cell pellets were analyzed separately. For in vivo experiments, tissues were homogenized in saline. Extraction of retinoids was performed under yellow lights using a two-step liquid-liquid extraction that has been described in detail previously using 4,4-dimethyl-RA as an internal standard for RA and retinyl acetate as an internal standard for retinol and total retinyl ester^43-46. For the extraction of retinoids, 1 to 3 ml of 0.025 M KOH in ethanol was added to tissue homogenates (in vivo) or cell culture (in vitro) samples. Then 10 ml hexane (for in vivo tissue sample) or 5 ml hexane (for in vitro cell culture sample) was added to the aqueous ethanol phase. The samples were vortexed and centrifuged for 1 to 3 min at 1000 rpm in a Dynac centrifuge (Becton Dickinson) to facilitate phase separation and pellet precipitated protein. The hexane (top) phase containing nonpolar retinoids (ROL and RE) was removed. 4 M HCl (60-180 μl) was added to the remaining aqueous ethanol phase, samples were vortexed, and then polar retinoids (RA) were removed by extraction with a second 5-10 ml aliquot of hexane as described above. […]
Levels of RA were determined by liquid chromatography-multistage tandem mass spectrometry (LC-MRM^3) which is an LC-MS/MS method utilizing two distinct fragmentation events for enhanced selectivity^43. RA was measured using a Shimadzu Prominence UFLC XR liquid chromatography system (Shimadzu, Columbia, MD) coupled to an AB Sciex 5500 or 6500+ QTRAP hybrid triple quadrupole mass spectrometer (AB Sciex, Framingham, MA) using atmospheric pressure chemical ionization (APCI) operated in positive ion mode as previously described^43. […]

[3] = tested on: wound tissues of Tlr3−/− mice; assay: Microarray gene ontology analysis of wound tissue; assay type: in vivo, mouse; conditions: Tlr3−/− mice treated with RA
Excerpt: as §1

Row | Compound | identical gene transcripts inhibited by Poly (I:C) and RA [1] [%] | identical gene transcripts induced by Poly (I:C) and RA [1] [%] | overlap of inhibited proteins between Poly (I:C) and RA [1] [%] | overlap of induced proteins between Poly (I:C) and RA [1] [%] | Poly (I:C)-induced RA accumulation ([2]; TLR3 siRNA-transfected human keratinocytes, 0.1 μg per ml, 48 hrs) | RA synthesis ([2]; human keratinocytes transfected with MDA5- or RIG-I-siRNA) | retinol (ROL) and retinyl ester (RE) quantities ([2]; human keratinocytes treated with Poly (I:C)) | RA abundance ([2]; human keratinocytes, cell lysates and culture media, 0.5 μg per ml, 48 hrs) | gene ontology categories in microarray analysis [3]
1 | Polyinosinic-polycytidylic acid [Poly (I:C)] | 18 | 13 | 36 | 61 | dependent on TLR3 | still induce RA synthesis | not modified | markedly increased | 
2 | CC1=C(/C=C/C(C)=C/C=C/C(C)=C/C(=O)O)C(C)(C)CCC1 [RA, all-trans-retinoic acid] | 18 | 13 | 36 | 61 |  |  |  |  | substantial enrichment of gene ontology categories pertaining to development and morphogenesis
